Experimental data reported in ChEMBL document CHEMBL5375987, “Structural Fusion of Natural and Synthetic Ligand Features Boosts RXR Agonist Potency” (J Med Chem, 2023).
≈ marks a conversion by molar mass, not a printed value. Values belong to the compound of their own block, whether it stands above or below them.

Legend:
[1] = target: T1, Retinoic acid receptor RXR-beta (Homo sapiens, UniProt P28702); test: Agonist activity at full length human RXR beta expressed in HEK293T cells measured after 16 hrs by Dual-glo luciferase assay; format: cell-based
T1 sequence (P28702 whole entry): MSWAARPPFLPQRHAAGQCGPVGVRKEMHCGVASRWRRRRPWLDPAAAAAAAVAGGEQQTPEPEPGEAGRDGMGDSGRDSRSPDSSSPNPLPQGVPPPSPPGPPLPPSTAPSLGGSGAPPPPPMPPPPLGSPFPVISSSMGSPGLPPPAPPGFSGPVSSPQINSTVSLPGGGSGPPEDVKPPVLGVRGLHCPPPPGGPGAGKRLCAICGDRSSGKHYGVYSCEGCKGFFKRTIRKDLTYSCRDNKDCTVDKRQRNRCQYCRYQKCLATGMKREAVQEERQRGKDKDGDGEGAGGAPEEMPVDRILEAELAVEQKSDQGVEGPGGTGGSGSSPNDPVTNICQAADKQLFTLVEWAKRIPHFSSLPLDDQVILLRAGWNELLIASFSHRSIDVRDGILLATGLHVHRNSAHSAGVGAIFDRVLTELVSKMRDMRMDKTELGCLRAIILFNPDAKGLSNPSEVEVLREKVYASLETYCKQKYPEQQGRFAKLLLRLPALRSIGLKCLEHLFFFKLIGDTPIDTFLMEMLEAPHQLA

[2] = target: T2, Retinoic acid receptor RXR-alpha (Homo sapiens, UniProt P19793)
T2 sequence (P19793 whole entry): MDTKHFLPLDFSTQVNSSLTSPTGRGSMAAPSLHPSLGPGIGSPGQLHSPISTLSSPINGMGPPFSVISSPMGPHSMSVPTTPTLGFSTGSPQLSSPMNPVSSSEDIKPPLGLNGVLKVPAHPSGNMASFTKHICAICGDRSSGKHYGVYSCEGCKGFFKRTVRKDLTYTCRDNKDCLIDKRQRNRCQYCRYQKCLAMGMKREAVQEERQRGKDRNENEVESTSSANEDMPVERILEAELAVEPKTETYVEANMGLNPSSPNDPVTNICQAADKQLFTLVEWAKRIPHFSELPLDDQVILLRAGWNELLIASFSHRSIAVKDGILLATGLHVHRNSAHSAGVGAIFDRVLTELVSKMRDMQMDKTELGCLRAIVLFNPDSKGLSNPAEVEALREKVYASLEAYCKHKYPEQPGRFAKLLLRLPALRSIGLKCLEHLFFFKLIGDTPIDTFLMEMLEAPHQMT
Description: Agonist activity at full length human RXR alpha expressed in HEK293T cells measured after 16 hrs by Dual-glo luciferase assay

[3] = target: T3, Retinoic acid receptor RXR-gamma (Homo sapiens, UniProt P48443); test: Agonist activity at full length human RXR gamma expressed in HEK293T cells measured after 16 hrs by Dual-glo luciferase assay; format: cell-based
T3 sequence (P48443 whole entry): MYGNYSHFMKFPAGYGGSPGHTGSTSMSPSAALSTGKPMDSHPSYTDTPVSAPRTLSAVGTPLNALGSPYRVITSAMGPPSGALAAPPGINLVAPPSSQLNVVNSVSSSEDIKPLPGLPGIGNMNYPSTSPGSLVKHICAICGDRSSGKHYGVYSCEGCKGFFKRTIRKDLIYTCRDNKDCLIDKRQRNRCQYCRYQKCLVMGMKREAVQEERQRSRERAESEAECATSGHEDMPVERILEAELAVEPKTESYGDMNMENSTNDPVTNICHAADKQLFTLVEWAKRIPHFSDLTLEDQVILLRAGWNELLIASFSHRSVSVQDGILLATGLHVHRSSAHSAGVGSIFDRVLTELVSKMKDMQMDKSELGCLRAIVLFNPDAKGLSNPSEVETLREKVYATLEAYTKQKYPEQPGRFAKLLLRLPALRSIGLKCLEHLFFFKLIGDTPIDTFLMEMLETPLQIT

[4] = Microsomal stability in Sprague-Dawley rat liver microsomes assessed as compound remaining at 10 uM measured auto 60 mins in presence of NADPH by HPLC-UV method; format: ADME, Microsome; conditions: read-out: Stability
[5] = target: T4, Nuclear receptor subfamily 1 group I member 3 (Homo sapiens, UniProt Q14994); test: Agonist activity at NR1I3 (unknown origin) at 1 uM
T4 sequence (Q14994 whole entry): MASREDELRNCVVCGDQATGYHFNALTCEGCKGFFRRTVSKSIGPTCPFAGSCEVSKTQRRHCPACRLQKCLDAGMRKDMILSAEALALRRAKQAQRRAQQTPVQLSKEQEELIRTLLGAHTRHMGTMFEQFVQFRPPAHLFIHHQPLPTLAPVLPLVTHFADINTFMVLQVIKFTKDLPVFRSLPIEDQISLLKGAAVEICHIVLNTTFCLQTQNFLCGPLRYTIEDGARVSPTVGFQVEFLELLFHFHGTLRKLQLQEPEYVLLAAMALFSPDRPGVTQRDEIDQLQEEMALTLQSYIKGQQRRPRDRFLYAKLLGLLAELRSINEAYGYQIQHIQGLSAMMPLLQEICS

[6] = system: COS-7; test: Cytotoxicity against green monkey COS-7 cells assessed as inhibition of cell growth at upto 30 uM measured after 24 hrs CCK-8 method; format: toxicity, cell-based; conditions: chlorocebus aethiops, cos-7, 24 h
[7] = target: T4, Nuclear receptor subfamily 1 group I member 3; test: Antagonist activity at NR1I3 (unknown origin) at 1 uM
[8] = Thermodynamic aqueous solubility of compound at 24 degreeC measured after 24 hrs by SpectraMax M5e plate reader analysis; format: physicochemical; conditions: aqueous medium, read-out: Therm_solubility
[9] = target: T4, Nuclear receptor subfamily 1 group I member 3; test: Inverse agonist activity at NR1I3 (unknown origin) at 1 uM
[10] = Microsomal stability in Sprague-Dawley rat liver microsomes assessed as half life at 10 uM in presence of NADPH by HPLC-UV method; format: ADME, Microsome

SMILES: C/C(C(=O)O)=C(/C)c1nc(-c2ccccc2)c(-c2ccccc2)o1
- EC50 [1]: 1.9 µM

SMILES: C/C(=C\C(=O)O)c1nc(-c2ccccc2)c(-c2ccccc2)o1
- EC50 [1]: 7.4 µM

SMILES: O=C(O)/C=C/c1nc(-c2ccccc2)c(-c2ccccc2)o1
- EC50 [2]: 13 µM
- EC50 [1]: 13.1 µM

SMILES: O=C(O)/C=C/c1nc(-c2ccccc2)c(-c2cc(C(F)(F)F)cc(C(F)(F)F)c2)o1
- EC50 [3]: 0.057 µM

Now from value to compound, other results behind:

- remaining at 1 h, 10 µM [4]: 79%
- Activity [5]: Not Active
- Activity [7]: Not Active
- solubility thermodynamic at 24 h [8]: 18.3 µM (≈ 8.08 µg/mL)
- Activity [9]: Not Active
- half-life at 10 µM [10]: > 2 h
SMILES: O=C(O)[C@@H]1C[C@H]1c1nc(-c2ccccc2)c(-c2cc(C(F)(F)F)cc(C(F)(F)F)c2)o1 (racemic)
- Activity [6]: Non-Toxic

- solubility thermodynamic at 24 h [8]: 5.8 µM (≈ 2.48 µg/mL)
SMILES: OC[C@@H]1C[C@H]1c1nc(-c2ccccc2)c(-c2cc(C(F)(F)F)cc(C(F)(F)F)c2)o1 (racemic)
